From patent publication US8288379B2, “Thia-triaza-cyclopentazulenes” (Boehringer Ingelheim International GmbH, priority 2009, dated 2012)

How the values were obtained:
FRAP1 (mTOR) kinase = biological target: T1, FRAP1 (mTOR) kinase (Homo sapiens, UniProt P42345); assay: Inhibition of mTOR-induced p-4E-BP1 phosphorylation (TR-FRET mTOR Activity Kit; Invitrogen); type: biochemical; details: 400 nM GFP-4E-BP1 substrate, ~150 ng/mL mTOR, one hour at room temperature
T1 construct: purchased Invitrogen PV4753
Procedure, shortened: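 LanthaScreen TR-FRET: mTOR with GFP-4E-BP1 substrate in HEPES pH 7.5 buffer with 10 mM MnCl2, compound preincubated 30 min at RT, then ATP added and reacted 1 h at 20-25 °C. Stopped with EDTA plus Tb-anti-p4E-BP1 (pThr46), 1 h; GFP/Tb emission ratio over a 16-point curve, sigmoidal fit for IC50.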

PC-3 cells = assay: Inhibition of proliferation: CyQuant PC-3; type: cell-based; details: 72 h; PC-3 human prostate carcinoma cells, incubated with compounds for 3 days, CyQuant NF DNA dye
Protocol: • GFP-4E-BP1 substrate; Invitrogen order no. PV4759 • Lanthascreen Tb-anti-p4E-BP1 (pThr46) Antibody Kit; Invitrogen order no. PV4758 • FRAP1 (mTOR) kinase; Invitrogen order no. […] Preparation of Reagents: Note: Thaw and keep mTOR, the substrate, ATP, and the antibody on ice prior to making working dilutions. Working dilutions of these components can be kept at room temperature for short periods of time the day of use. 1. Add 2 ml of 5× Assay Buffer to 8 ml water to prepare 10 ml of 1× Assay Buffer. Note: The concentration of 1× Assay Buffer is 50 mM HEPES pH 7.5, 0.01% Polysorbate 20, 1 mM EGTA, and 10 mM MnCl2. 2. Prepare Antibody/EDTA Solution by first adding 2.75 n1 of Tb-anti p4E-BP1 Antibody to 2397 n1 of LanthaScreen™ TR-FRET Dilution Buffer. Then, add 100 n1 of 0.5 M EDTA. 3. Prepare 4× Substrate/Enzyme Solution by first adding 72 n1 of GFP-4E-BP1 (22 nM) to 926 n1 of 1× Assay Buffer. Then, add 1.6 n1 of mTOR (0.45 mg/mL). 4. Prepare ATP Solution by adding 3.2 n1 of 10 mM ATP to 1997 n1 of 1× Assay Buffer. Serial Dilution of Inhibitors (16 Point Curve): Note: It is recommended that inhibitors be serially diluted in DMSO, then diluted to a 4× working concentration with 1× Assay Buffer. The below procedure describes dilution of compounds in a 96-well format prior to transfer to a 384-well format for kinase assays. This procedure calls for dilution of the compounds in 2 adjacent columns of a 96-well plate, which upon transfer to a single column of a 384-well plate with an 8-channel pipette will align the samples in order of concentration. 1. Dispense 40 n1 of DMSO to two adjacent columns of a 96 well plate per compound (e.g. columns 1 and 2). 2. Add 10 n1 of inhibitor stock (10 mM) to the first well of the first column (A1) and mix. 3. Remove 10 n1 from A1 and transfer to the adjacent well in the next column (B1) and mix. 4. Remove 10 n1 from B1 and transfer to the next well in the first column (B2) and mix. 5. Repeat this dilution pattern through well H1 and leave the last well (H2) as DMSO only. 6. Remove 4 n1 of diluted compounds and add to 96 n1 of 1× Assay Buffer in a 96-well plate making 4× compound dilutions. Kinase Reaction: 1. Add 2.5 μl of 4× compound dilutions from the first column of the 96-well plate to every other well of column 1 of a 384-well plate with an 8-channel pipette. Repeat for columns 2 and 3. 2. Add 2.5 n1 of 4× compound dilutions from the second column of the 96-well plate to the empty wells of column 1 of the 384-well plate with an 8-channel pipette. Repeat for columns 2 and 3. Note: This procedure aligns the compound dilutions in order of concentration. 3. Add 2.5 n1 of 4× Enzyme/Substrate Solution to all columns 1-6. 4. Preincubate for 30 min. at RT (shaker). 5. Add 5 n1 of ATP Solution to all wells to start reactions. 6. Shake the assay plate on a plate shaker for 30 seconds. 7. Incubate the assay plate for one hour at room temperature (20-25° C.). Stop Step and Fluorescence Detection: 1. Add 10 n1 of Antibody/EDTA Solution to each well in columns 1-9. 2. Shake the assay plate on a plate shaker for 30 seconds. 3. Incubate the assay plate for one hour at room temperature (20-25° C.). 4. Measure the GFP (FRET) and terbium (reference) emission signals on a fluorescence plate reader (e.g. Perkin Elmer Envision). Data Analysis: 1. Calculate the emission ratio for each sample by dividing the GFP (FRET) signal by the terbium (reference) signal. 2. Plot the concentration of each compound versus the emission ratio. Determine the concentration of compound required to reach 50% of the maximum signal (IC50). Determination of IC50 values can be obtained by curve fitting (sigmoidal dose response, variable slope) using Prism software from GraphPad). Inhibition of Proliferation: CyQuant PC-3 Description:
The CyQuant NF assay is based on measurement of cellular DNA content via fluorescent dye binding. Because cellular DNA content is highly regulated, it is closely proportional to cell number. […]

T1 sequence (P42345 1360-2549 limits assumed): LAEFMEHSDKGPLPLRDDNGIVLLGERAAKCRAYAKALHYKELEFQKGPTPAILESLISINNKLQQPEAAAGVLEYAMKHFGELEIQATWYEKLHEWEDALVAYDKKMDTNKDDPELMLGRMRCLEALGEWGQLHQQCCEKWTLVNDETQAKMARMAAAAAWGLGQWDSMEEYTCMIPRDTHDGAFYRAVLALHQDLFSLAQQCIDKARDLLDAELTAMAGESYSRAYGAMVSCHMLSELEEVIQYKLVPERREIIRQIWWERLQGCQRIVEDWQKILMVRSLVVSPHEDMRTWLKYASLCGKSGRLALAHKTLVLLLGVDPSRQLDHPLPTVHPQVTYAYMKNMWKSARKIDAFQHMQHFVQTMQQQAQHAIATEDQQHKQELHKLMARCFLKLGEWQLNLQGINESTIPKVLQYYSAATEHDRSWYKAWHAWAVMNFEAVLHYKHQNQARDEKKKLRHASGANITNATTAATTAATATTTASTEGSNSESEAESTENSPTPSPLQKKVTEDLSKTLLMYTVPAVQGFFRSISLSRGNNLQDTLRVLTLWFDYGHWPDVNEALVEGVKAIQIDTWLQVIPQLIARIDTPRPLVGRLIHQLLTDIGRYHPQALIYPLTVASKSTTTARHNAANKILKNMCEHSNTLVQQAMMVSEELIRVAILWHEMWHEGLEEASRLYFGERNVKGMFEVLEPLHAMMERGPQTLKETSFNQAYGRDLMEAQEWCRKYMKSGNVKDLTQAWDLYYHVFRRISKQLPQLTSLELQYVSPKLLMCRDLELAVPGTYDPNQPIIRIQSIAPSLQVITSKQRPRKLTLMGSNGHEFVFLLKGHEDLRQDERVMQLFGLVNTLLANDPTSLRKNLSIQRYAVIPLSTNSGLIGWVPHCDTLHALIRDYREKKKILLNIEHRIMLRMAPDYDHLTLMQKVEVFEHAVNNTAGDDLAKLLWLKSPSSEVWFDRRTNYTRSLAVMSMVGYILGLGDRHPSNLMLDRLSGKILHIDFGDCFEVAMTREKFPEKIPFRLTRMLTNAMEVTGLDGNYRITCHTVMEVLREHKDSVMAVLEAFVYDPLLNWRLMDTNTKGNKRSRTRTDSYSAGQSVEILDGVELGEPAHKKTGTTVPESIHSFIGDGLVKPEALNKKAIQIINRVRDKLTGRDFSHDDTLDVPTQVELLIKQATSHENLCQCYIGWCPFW

SMILES	IC50 (FRAP1 (mTOR) kinase) [nM]	EC50 (PC-3 cells) [nM]
CC(=O)Nc1nc2c(s1)-c1c(c(-c3ccc(C)nc3)nn1-c1cccnc1C)CCC2 [Example B-137, N-[1-(2-Methyl-pyridin-3-yl)-3-(6-methyl-pyridin-3-yl)-1,4,5,6-tetrahydro-9-thia-1,2,7-triaza-cyclopent[e]azulen-8-yl]acetamide]	422	1240
CNc1ccc(-c2nn(-c3ccccc3F)c3c2CCCc2nc(NC(C)=O)sc2-3)cn1 [Example B-81, N-[1-(2-Fluoro-phenyl)-3-(6-methylamino-pyridin-3-yl)-1,4,5,6-tetrahydro-9-thia-1,2,7-triaza-cyclopenta[e]azulen-8-yl]-acetamide]	41	23
CC(=O)Nc1nc2c(s1)-c1c(c(-c3ccc(C)nc3)nn1C(C)C)CCC2 [Example B-09, N-[1-Isopropyl-3-(6-methyl-pyridin-3-yl)-1,4,5,6-tetrahydro-9-thia-1,2,7-triaza-cyclopent[e]azulen-8-yl]acetamide]	266	334
CCNc1ccc(-c2nn(-c3ccccc3Cl)c3c2CCCc2nc(NC(C)=O)sc2-3)cn1 [Example B-75]	49	113
CNc1ccc(-c2nn(CCOC)c3c2CCCc2nc(NC(C)=O)sc2-3)cn1 [Example B-03, N-[1-(2-Methoxy-ethyl)-3-(6-methylamino-pyridin-3-yl)-1,4,5,6-tetrahydro-9-thia-1,2,7-triaza-cyclopenta[e]azulen-8-yl]-acetamide]	87	263
CNc1ccc(-c2nn(CC(C)C)c3c2CCCc2nc(NC(C)=O)sc2-3)cn1 [Example B-86, N-[1-isobutyl-3-(6-methylamino-pyridin-3-yl)-1,4,5,6-tetrahydro-9-thia-1,2,7-triaza-cyclopenta[e]azulen-8-yl]-acetamide]	32	47
CCNc1ccc(-c2nn(-c3ccccc3C)c3c2CCCc2nc(NC(=O)NC)sc2-3)cn1 [Example B-68]	166	604
CC(=O)Nc1nc2c(s1)-c1c(c(-c3c[nH]cn3)nn1CC(C)C)CCC2 [Example B-113]	9	29
CNc1ccc(-c2nn(CCN3CCOCC3)c3c2CCCc2nc(NC(C)=O)sc2-3)cn1 [Example B-82, N-[3-(6-Methylamino-pyridin-3-yl)-1-(2-morpholin-4-yl-ethyl)-1,4,5,6-tetrahydro-9-thia-1,2,7-triaza-cyclopenta[e]azulen-8-yl]-acetamide]	33	49
CCNc1ccc(-c2nn(-c3ccccc3OC)c3c2CCCc2nc(NC(C)=O)sc2-3)cn1 [Example B-78]	136	249
CC(=O)Nc1nc2c(s1)-c1c(c(-c3ccc(N)nc3)nn1C(C)C)CCC2 [Example B-66, N-[3-(6-Amino-pyridin-3-yl)-1-isopropyl-1,4,5,6-tetrahydro-9-thia-1,2,7-triaza-cyclopenta[e]azulen-8-yl]-acetamide]	12	90
C=CCn1nc(-c2ccc(N)nc2)c2c1-c1sc(NC(=O)N(C)C)nc1CCC2 [Example B-52]	146	326
CNc1ccc(-c2nn(C3CCCOC3)c3c2CCCc2nc(NC(C)=O)sc2-3)cn1 (centres unmarked) [Example B-83, N-[3-(6-Methylamino-pyridin-3-yl)-1-(tetrahydro-pyran-3-yl)-1,4,5,6-tetrahydro-9-thia-1,2,7-triaza-cyclopenta[e]azulen-8-yl]-acetamide]	65	41
CNc1ccc(-c2nn(C3CCN(C)CC3)c3c2CCCc2nc(NC(=O)N(C)C)sc2-3)cn1 [Example B-56]	379	579
CCNc1ccc(-c2nn(C(C)C)c3c2CCCc2nc(NC(C)=O)sc2-3)cn1 [Example B-01, N-[3-(6-Ethylamino-pyridin-3-yl)-1-isopropyl-1,4,5,6-tetrahydro-9-thia-1,2,7-triaza-cyclopenta[e]azulen-8-yl]-acetamide]	151	308
Cc1ccccc1-n1nc(-c2ccc(N)nc2)c2c1-c1sc(NC(=O)N(C)C)nc1CCC2 [Example B-55]	170	450
CC(=O)Nc1nc2c(s1)-c1c(c(-c3ccc(N)nc3)nn1-c1ccccc1F)CCC2 [Example B-62, N-[3-(6-Amino-pyridin-3-yl)-1-(2-fluoro-phenyl)-1,4,5,6-tetrahydro-9-thia-1,2,7-triaza-cyclopenta[e]azulen-8-yl]-acetamide]	10	47
CCn1nc(-c2ccc(NC)nc2)c2c1-c1sc(NC(=O)N(C)C)nc1CCC2 [Example B-48]	451	710
CC(=O)Nc1nc2c(s1)-c1c(c(-c3c[nH]cn3)nn1-c1ccc(C3(N(C)C)CC3)cc1)CCC2 [Example B-115]	2	16
CNc1ccc(-c2nn(-c3cccc(OC)c3)c3c2CCCc2nc(NC(C)=O)sc2-3)cn1 [Example B-89]	57	72
CC(=O)Nc1nc2c(s1)-c1c(c(-c3ccc(C)nc3)nn1C1CCN(C3CC3)CC1)CCC2 [Example B-12, N-[1-(1-Cyclopropyl-piperidin-4-yl)-3-(6-methyl-pyridin-3-yl)-1,4,5,6-tetrahydro-9-thia-1,2,7-triaza-cyclopent[e]azulen-8-yl]acetamide]	31	127
CNc1ccc(-c2nn(-c3ccccc3)c3c2CCCc2nc(NC(C)=O)sc2-3)cn1 [Example B-87, N-[3-(6-Methylamino-pyridin-3-yl)-1-phenyl-1,4,5,6-tetrahydro-9-thia-1,2,7-triaza-cyclopenta[e]azulen-8-yl]-acetamide]	55	21
COCCC(=O)Nc1nc2c(s1)-c1c(c(-c3ccc(N)nc3)nn1C(C)C)CCC2 [Example B-133, N-[3-(6-Amino-pyridin-3-yl)-1-isopropyl-1,4,5,6-tetrahydro-9-thia-1,2,7-triaza-cyclopenta[e]azulen-8-yl]-3-methoxy-propionamide]	65	152
CC(=O)Nc1nc2c(s1)-c1c(c(-c3c[nH]cn3)nn1-c1ccccc1C)CCC2 [Example B-112, N-[3-(1H-imidazol-4-yl)-1-o-tolyl-1,4,5,6-tetrahydro-9-thia-1,2,7-triaza-cyclopenta[e]azulen-8-yl]-acetamide]	39	110
CC(=O)Nc1nc2c(s1)-c1c(c(-c3c[nH]c(C)n3)nn1CC(C)C)CCC2 [Example B-121, N-[1-Isobutyl-3-(2-methyl-1H-imidazol-4-yl)-1,4,5,6-tetrahydro-9-thia-1,2,7-triaza-cyclopenta[e]azulen-8-yl]-acetamide]	35	73
